Laboratory results from article PMC10402266, “Reaction hijacking inhibition of Plasmodium falciparum asparagine tRNA synthetase” (Research Square, 2023).

Columns and labels:
Format in all cases: biochemical
[1] = target: T1, PfAsnRS (Plasmodium falciparum cytoplasmic asparaginyl tRNA synthetase) (Plasmodium falciparum, UniProt O96198); test: ATP consumption assay of recombinant enzyme
T1 construct: gene PF3D7_0211800; recombinant wildtype PfAsnRS, His-tag removed

[2] = target: T1, PfAsnRS (Plasmodium falciparum cytoplasmic asparaginyl tRNA synthetase); test: ATP consumption assay of recombinant enzyme without tRNA, synthetic adduct
[3] = target: T2, PfAsnRS (Plasmodium falciparum cytoplasmic asparaginyl tRNA synthetase) (Plasmodium falciparum, UniProt O96198, R487S); test: ATP consumption assay of recombinant mutant enzyme with tRNA
T2 construct: gene PF3D7_0211800; recombinant PfAsnRSR487S
T2 sequence (O96198 1-610 R487S): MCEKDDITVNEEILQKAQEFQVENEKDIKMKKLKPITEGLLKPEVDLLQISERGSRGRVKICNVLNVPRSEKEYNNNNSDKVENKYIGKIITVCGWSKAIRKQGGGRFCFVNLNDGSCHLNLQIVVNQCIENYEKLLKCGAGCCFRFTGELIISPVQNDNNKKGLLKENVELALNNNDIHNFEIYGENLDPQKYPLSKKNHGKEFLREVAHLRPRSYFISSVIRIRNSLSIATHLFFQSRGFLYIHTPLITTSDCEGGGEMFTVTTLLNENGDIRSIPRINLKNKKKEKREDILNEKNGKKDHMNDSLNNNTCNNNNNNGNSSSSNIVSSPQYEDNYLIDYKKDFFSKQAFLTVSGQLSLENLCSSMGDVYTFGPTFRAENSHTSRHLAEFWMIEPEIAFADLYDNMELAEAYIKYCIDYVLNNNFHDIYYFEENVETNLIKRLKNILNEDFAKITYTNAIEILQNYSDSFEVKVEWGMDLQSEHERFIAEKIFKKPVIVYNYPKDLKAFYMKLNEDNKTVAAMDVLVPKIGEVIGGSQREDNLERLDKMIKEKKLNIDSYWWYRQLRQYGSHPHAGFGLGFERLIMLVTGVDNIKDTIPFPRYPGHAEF

[4] = target: T1, PfAsnRS (Plasmodium falciparum cytoplasmic asparaginyl tRNA synthetase); test: ATP consumption assay of recombinant enzyme with tRNA; Asn adduct found by LC-MS

Structure (SMILES): Nc1ncnc2c1ncn2[C@@H]1O[C@H](COS(N)(=O)=O)[C@@H](O)[C@H]1O [AMS, adenosine 5’-sulfamate]
- IC50 [1]: 0.0037 µM

Structure (SMILES): NC(=O)C[C@H](N)C(=O)NS(=O)(=O)c1cccc(-c2cc3ncnc(N)c3s2)c1 [Asn-OSM-S-106]
- IC50 [2]: 2.6 / 3.3 μM

Structure (SMILES): Nc1ncnc2cc(-c3cccc(S(N)(=O)=O)c3)sc12 [OSM-S-106]
- IC50 [3]: 26.3 µM
- IC50 [4]: 3.6 µM
